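A five-concentration, 48-hour dose response in 96-well plates underlies each endpoint, interpolated linearly between surrounding concentrations. Here, GI50 denotes the concentration required for 50% inhibition of growth. TGI denotes the concentration required for complete inhibition of growth.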
Key:
Experiment in all cases: NCI anticancer screen, dose series, 48 h
[1] = test system: HCC-2998 colon
[2] = test system: 786-0 renal
[3] = test system: HT29 colon
[4] = test system: OVCAR-3 ovarian
[5] = test system: K-562 leukemia
[6] = test system: SF-539 CNS
[7] = test system: UACC-257 melanoma
[8] = test system: COLO 205 colon
[9] = test system: NCI-H522 lung

| Compound | TGI [1] [µM] | TGI [2] [µM] | TGI [3] [µM] | TGI [4] [µM] | TGI [5] [µM] | TGI [6] [µM] | TGI [7] [µM] | TGI [8] [µM] | TGI [9] [µM] | GI50 [1] [µM] | GI50 [2] [µM] | GI50 [3] [µM] | GI50 [4] [µM] | GI50 [5] [µM] | GI50 [6] [µM] | GI50 [7] [µM] | GI50 [8] [µM] | GI50 [9] [µM] |
| --- | --- | --- | --- | --- | --- | --- | --- | --- | --- | --- | --- | --- | --- | --- | --- | --- | --- | --- |
| Cc1ccc(NC(=O)/C(C#N)=C/c2ccccc2)c(C)c1 | > 100 | > 100 | > 100 | > 100 | > 100 | > 100 | > 100 | > 100 | > 100 | – | – | – | – | – | – | – | – | – |
| CC(=O)Nc1ccc(S(=O)(=O)NN(C)S(=O)(=O)c2ccc(C)cc2)cc1 | > 100 | > 100 | > 100 | > 100 | > 100 | > 100 | > 100 | > 100 | > 100 | – | – | – | – | – | – | – | – | – |
| O=C(Cc1ccccc1)C(c1ccccc1)S(=O)(=O)c1ccccc1 (stereo unspecified) | > 100 | > 100 | > 100 | > 100 | > 100 | > 100 | > 100 | > 100 | > 100 | – | – | – | – | – | – | – | – | – |
| CC(=O)OCC(CC[CH2][Sn]([Cl])([Cl])[c]1ccccc1)OC(C)=O (stereo unspecified) | 83.1 | 38 | 94.9 | 42.8 | 71.8 | 42.5 | 95.4 | 31.2 | 55.6 | 28.2 | 19.1 | 32.3 | 20 | 24.9 | 22 | 32.2 | 17.3 | 41.1 |
| N#C/C(=C1\OC(=N)C(c2ccc(Cl)cc2Cl)C1=O)c1ccc(Cl)cc1Cl (stereo unspecified) | – | > 100 | > 100 | > 100 | > 100 | > 100 | > 100 | > 100 | > 100 | – | – | – | – | – | – | – | – | – |
| C=C1C=CC2(Br)OC3CC(C)(Cl)C(Br)CC13C2(C)C (stereo unspecified) | 42.7 | > 100 | 36.5 | 40.8 | 36.8 | 38.9 | 42.8 | 30.9 | 30.1 | – | – | – | – | – | – | – | – | – |
| Cc1nnc(N/N=C(/C(=O)C(C#N)c2ccc(Cl)cc2)C(C#N)c2ccc(Cl)cc2)n1N (stereo unspecified) | 34.2 | 31.5 | 61.9 | 48.8 | 45.4 | – | 33.1 | 32.5 | 32.3 | – | – | – | – | – | – | – | – | – |
| CC1CCC2(C)C(CC=C(C=O)C2(O)C=O)C12CO2 (stereo unspecified) | 11.3 | 5.83 | 8.03 | 2.6 | 4.67 | 4.52 | 3.79 | 4.29 | 5.89 | – | – | – | – | – | – | – | – | – |
| C[P+]1(c2ccccc2)CCCCC1 | > 100 | > 100 | > 100 | > 100 | > 100 | > 100 | > 100 | > 100 | – | – | – | – | – | – | – | – | – | – |
| O=C(CO)C1CC2C=CC1C2 (stereo unspecified) | – | > 100 | > 100 | > 100 | > 100 | > 100 | > 100 | > 100 | > 100 | – | – | – | – | – | – | – | – | – |
| O=C(c1c(O)cc(O)cc1O)C1Cc2ccccc21 (stereo unspecified) | > 100 | > 100 | > 100 | – | > 100 | > 100 | > 100 | > 100 | > 100 | – | – | – | – | – | – | – | – | – |
| Nc1nc2ccccc2c2c1S(=O)(=O)c1ccc(Cl)cc1C2=O | 29.8 | > 50 | 5.88 | 3.33 | > 50 | 3.62 | > 50 | 6.85 | 2.2 | 2.03 | 5.93 | 1.63 | 1.14 | 1.45 | 1.3 | 1.96 | 1.94 | 0.86 |
| c1ccc2c(CNCCN3CCNCC3)c3ccccc3c(CNCCN3CCNCC3)c2c1 | 29.4 | 23.4 | > 100 | 51.7 | 32.7 | 37 | > 100 | > 100 | 35.9 | 12.7 | 2.26 | 29.2 | 18.9 | 10.3 | 16.4 | 62 | 13.8 | 13 |
| O=C(CC(=O)c1ccccc1)C(=O)Nc1ccc(Cl)cc1 | > 100 | > 100 | > 59.6 | > 100 | > 100 | > 100 | > 100 | > 66.1 | > 100 | – | – | – | – | – | – | – | – | – |
| CCc1ccccc1NC(=O)CC1NC(=O)CS1 (stereo unspecified) | > 100 | > 100 | – | > 100 | > 100 | > 100 | > 100 | > 100 | > 100 | – | – | – | – | – | – | – | – | – |
| CC(=O)CC(=O)CCC(=O)Nc1cccc(C(F)(F)F)c1 | > 100 | > 100 | > 100 | > 100 | > 100 | > 100 | > 100 | > 100 | > 100 | – | – | – | – | – | – | – | – | – |
| Cn1nc(-c2ccccc2)c(C(=O)/C=C/c2ccc(Cl)cc2)c(N2CCOCC2)c1=O | – | 12.3 | 15.1 | – | 9.41 | 7.67 | – | 3.79 | 9.46 | – | – | – | – | – | – | – | – | – |

Source: PubChem BioAssay (NCI)
